Experiment [1] concerns Aβ42. Briefly: In vivo Aβ42 lowering, rat. As to conditions: oral dose 30 mpk at 4 hr time point. The source says:
(§1) To determine whether acute administration of an Aβ42 lowering agent would reduce Aβ42 levels in vivo, non-transgenic rodents, e.g. mice or rats can be used. Alternatively, two to three month old Tg2576 mice expressing APP695 containing the “Swedish” variant can be used or a transgenic mouse model developed by Dr. Fred Van Leuven (K.U.Leuven, Belgium) and co-workers, with neuron-specific expression of a clinical mutant of the human amyloid precursor protein [V717I] (Moechars et al., 1999 J. Biol. Chem. 274, 6483). […] Animals of this age have high levels of Aβ in the brain but no detectable Aβ deposition. Mice treated with the Aβ42 lowering agent will be examined and compared to those untreated or treated with vehicle and brain levels of soluble Aβ42 and total Aβ would be quantitated by standard techniques, for example, using ELISA. Treatment periods may vary from hours to days and will be adjusted based on the results of the Aβ42 lowering once a time course of onset of effect can be established.
(§2) A typical protocol for measuring Aβ42 lowering in vivo is shown but it is only one of many variations that could be used to optimize the levels of detectable Aβ. For example, aliquots of compounds can be dissolved in DMSO (volume equal to 1/10th of the final formulation volume), vortexed and further diluted (1:10) with a 10% (w/v) hydroxypropyl β cyclodextrin (HBC, Aldrich, Ref N° 33,260-7) solution in PBS, where after they are sonicated for 20 seconds.
(§3) Aβ42 lowering agents may be administered as a single oral dose given three to four hours before sacrifice and analysis or alternatively could be given over a course of days and the animals sacrificed three to four hours after the final dose is given.
(§4) Blood is collected at sacrifice. The blood collection is performed via a heart puncture during anesthesia with a mixture of Ketalar (Ketamin), Rompun (Xylazin 2%) and Atropin (2:1:1) and collected in EDTA treated collection tubes. Blood is centrifuged at 4000 g for 5 minutes at 4° C. and the plasma recovered for analysis.
(§5) The mice are anaesthetized with a mixture of Ketalar (Ketamin), Rompun (Xylazin 2%) and Atropin (2:1:1) and flushed trans-cardially with physiological serum at 4° C.
(§6) The brain is removed from the cranium and hindbrain and forebrain are separated with a cut in the coronal/frontal plane. The cerebellum is removed. The forebrain is divided evenly into left and right hemisphere by using a midline sagital cut.
(§7) One hemisphere is immediately immersed in liquid nitrogen and stored at −70° C. until homogenization for biochemical assays.
(§8) Brains are homogenized using a Potter, a glass tube (detergent free, 2 cm^3) and a mechanical homogenizer (650 rpm). A volume of 6.5×½ brain weight of freshly prepared 20 mM Tris/HCl buffer (pH 8.5) with Proteinase Inhibitors (1 tablet per 50 ml Tris/HCl buffer, Complete™, Roche, Mannheim, Germany) is used as homogenization buffer.
(§9) Samples are transferred from −70° C. into a sample holder with liquid nitrogen and each individual sample is pre-warmed by incubation on the bench for a few seconds prior to homogenization. The homogenates are collected in Beckman centrifuge tubes TLX and collected on ice prior to centrifugation. Between two samples, the Potter and the glass tube are rinsed carefully with distilled water without detergents and dried with absorption paper.
(§10) Samples are centrifuged in a pre-cooled ultracentrifuge (Beckman, Mannheim, Germany) for 1 hour and 20 minutes at 48000 rpm (135.000×g) at 4° C. The supernatant (soluble fraction containing secreted APP and amyloid peptides) is separated from the pellet (membrane fraction containing membrane-bound APP-fragments and plaque-associated amyloid peptides in case of aged mice).
(§11) Small reversed phase columns (C18-Sep-Pack Vac 3 cc cartridges, Waters, Mass., MA) are mounted on a vacuum system and washed with 80% acetonitrile in 0.1% Trifluoroacetic acid (A-TFA) followed with 0.1% TFA twice. […]

The subject of experiment [2] is Aβ42. Briefly: In vivo Aβ42 lowering, mouse. As to conditions: oral dose 30 mpk at 4 hr time point, read-out: Mouse Efficacy % Lowering Aβ 42.
Source text: as §1, §2, §3, §4, §5, §6, §7, §8, §9, §10, §11

`CC(C)CC(C(=O)O)c1cc(-c2ccc(C(F)(F)F)cc2)cc(-c2cc(F)c(F)c(F)c2)c1` (stereo not drawn) [Compound 14, 4-Methyl-2-(3,4,5-trifluoro-4″-trifluoromethyl-[1,1′;3′,1″]terphenyl-5′-yl)-pentanoic acid]: in the experiment with Aβ42 [1], the “Rat Efficacy % Lowering Aβ 42” value came out at 20%. Further, the inhibition in vivo at 30 mg/kg with Aβ42 [2] is 58%.

On to `CC(C)CC(C(=O)O)c1cc(-c2ccc(OC(F)(F)F)cc2)cc(-c2ccc(C(F)(F)F)cc2)c1` (stereo not drawn) [Compound 20, 4-Methyl-2-(4-trifluoromethoxy-4″-trifluoromethyl-[1,1′;3′,1″]terphenyl-5′-yl)-pentanoic acid], for which the “Rat Efficacy % Lowering Aβ 42” value in the experiment with Aβ42 [1] is recorded as 20%. In addition, in the experiment on Aβ42 [2], the inhibition in vivo at 30 mg/kg was found to be 50%.

`CC(C)C[C@@H](C(=O)O)c1cc(-c2ccc(C(F)(F)F)cc2)cc(-c2ccc(C(F)(F)F)cc2)c1` [Compound 39, (R)-2-(4,4″-Bis-trifluoromethyl-[1,1′;3′,1″]terphenyl-5′-yl)-4-methyl-pentanoic acid]: the “Rat Efficacy % Lowering Aβ 42” value in the experiment with Aβ42 [1] is on record as 27%. Also, the inhibition in vivo at 30 mg/kg with Aβ42 [2] came to 50%.

For the compound `CC(C)C[C@H](C(=O)O)c1cc(-c2ccc(C(F)(F)F)cc2)cc(-c2ccc(C(F)(F)F)cc2)c1` [Compound 40, (S)-2-(4,4″-Bis-trifluoromethyl-[1,1′;3′,1″]terphenyl-5′-yl)-4-methyl-pentanoic acid], in the experiment with Aβ42 [1], the “Rat Efficacy % Lowering Aβ 42” value is 40%. Further, the inhibition in vivo at 30 mg/kg with Aβ42 [2] was found to be 40%.

Consider `CC(C)C[C@@H](C(=O)O)c1cc(-c2ccc(C(F)(F)F)cc2)cc(-c2cc(C(F)(F)F)cc(C(F)(F)F)c2)c1` [Compound 44, (R)-4-Methyl-2-(3,5,4″-tris-trifluoromethyl-[1,1′;3′,1″]terphenyl-5′-yl)-pentanoic acid], for which the “Rat Efficacy % Lowering Aβ 42” value in the experiment with Aβ42 [1] is −10%. Also, the inhibition in vivo at 30 mg/kg with Aβ42 [2] is 40%.

With `CC(C)C[C@H](C(=O)O)c1cc(-c2ccc(C(F)(F)F)cc2)cc(-c2ccc(Cl)c(F)c2)c1` [Compound 50, (S)-2-(4-Chloro-3-fluoro-4″-trifluoromethyl-[1,1′;3′,1″]terphenyl-5′-yl)-4-methyl-pentanoic acid], the “Rat Efficacy % Lowering Aβ 42” value with Aβ42 [1] turned out to be 28%. In addition, the inhibition in vivo at 30 mg/kg in the experiment on Aβ42 [2] amounted to 48%.

The values are drawn from patent US8106236B2, “Triaryl compounds and derivates thereof” (Ortho-McNeil Pharmaceutical, Inc., priority 2006, dated 2012).
